Legend:
Assay in all cases: KINOMEscan binding assay
Settings in all cases: read-out: % Ctrl @ 10000 nM
ARK5 = ARK5 (Homo sapiens, UniProt O60285)
BRAF (V600E) = BRAF (V600E) (Homo sapiens, UniProt P15056, V600E)
BUB1 = BUB1 (Homo sapiens, UniProt O43683)
CDK9 = CDK9 (Homo sapiens, UniProt P50750)
CLK1 = CLK1 (Homo sapiens, UniProt P49759)
CLK3 = CLK3 (Homo sapiens, UniProt P49761)
CSNK1A1L = CSNK1A1L (Homo sapiens, UniProt Q8N752)
CSNK1G1 = CSNK1G1 (Homo sapiens, UniProt Q9HCP0)
EGFR (L858R) = EGFR (L858R) (Homo sapiens, UniProt P00533, L858R)
FLT4 = FLT4 (Homo sapiens, UniProt P35916)
GSK3B = GSK3B (Homo sapiens, UniProt P49841)
HASPIN = HASPIN (Homo sapiens, UniProt Q8TF76)
INSRR = INSRR (Homo sapiens, UniProt P14616)
IRAK3 = IRAK3 (Homo sapiens, UniProt Q9Y616)
[1] = molecular target: JAK2 (JH1domain-catalytic) (Homo sapiens, UniProt O60674)
KIT (A829P) = KIT (A829P) (Homo sapiens, UniProt P10721, A829P)
KIT (D816V) = KIT (D816V) (Homo sapiens, UniProt P10721, D816V)
KIT-autoinhibited = KIT-autoinhibited (Homo sapiens, UniProt P10721)
LATS1 = LATS1 (Homo sapiens, UniProt O95835)
MEK1 = MEK1 (Homo sapiens, UniProt Q02750)
MERTK = MERTK (Homo sapiens, UniProt Q12866)
MKK7 = MKK7 (Homo sapiens, UniProt O14733)
PIK3C2B = PIK3C2B (Homo sapiens, UniProt O00750)
PIK3CA (C420R) = PIK3CA (C420R) (Homo sapiens, UniProt P42336, C420R)
PIK3CD = PIK3CD (Homo sapiens, UniProt O00329)
PIP5K1A = PIP5K1A (Homo sapiens, UniProt Q99755)
RET (M918T) = RET (M918T) (Homo sapiens, UniProt P07949, M918T)
ROCK2 = ROCK2 (Homo sapiens, UniProt O75116)
[2] = molecular target: RPS6KA5 Kin.Dom.1-N-terminal (Homo sapiens, UniProt O75582)
[3] = molecular target: RSK1 Kin.Dom.1-N-terminal (Homo sapiens, UniProt Q15418)
[4] = molecular target: RSK3 Kin.Dom.1-N-terminal (Homo sapiens, UniProt Q15349)
[5] = molecular target: RSK4 Kin.Dom.2-C-terminal (Homo sapiens, UniProt Q9UK32)
SBK1 = SBK1 (Homo sapiens, UniProt Q52WX2)
SGK = SGK (Homo sapiens, UniProt O00141)
SgK110 = SgK110 (Homo sapiens, UniProt P0C264)
SRC = SRC (Homo sapiens, UniProt P12931)
SRPK1 = SRPK1 (Homo sapiens, UniProt Q96SB4)
STK16 = STK16 (Homo sapiens, UniProt O75716)
STK39 = STK39 (Homo sapiens, UniProt Q9UEW8)
TAOK1 = TAOK1 (Homo sapiens, UniProt Q7L7X3)
TIE2 = TIE2 (Homo sapiens, UniProt Q02763)
TNIK = TNIK (Homo sapiens, UniProt Q9UKE5)

KIT (D816V), sequence (P10721 26-976 D816V): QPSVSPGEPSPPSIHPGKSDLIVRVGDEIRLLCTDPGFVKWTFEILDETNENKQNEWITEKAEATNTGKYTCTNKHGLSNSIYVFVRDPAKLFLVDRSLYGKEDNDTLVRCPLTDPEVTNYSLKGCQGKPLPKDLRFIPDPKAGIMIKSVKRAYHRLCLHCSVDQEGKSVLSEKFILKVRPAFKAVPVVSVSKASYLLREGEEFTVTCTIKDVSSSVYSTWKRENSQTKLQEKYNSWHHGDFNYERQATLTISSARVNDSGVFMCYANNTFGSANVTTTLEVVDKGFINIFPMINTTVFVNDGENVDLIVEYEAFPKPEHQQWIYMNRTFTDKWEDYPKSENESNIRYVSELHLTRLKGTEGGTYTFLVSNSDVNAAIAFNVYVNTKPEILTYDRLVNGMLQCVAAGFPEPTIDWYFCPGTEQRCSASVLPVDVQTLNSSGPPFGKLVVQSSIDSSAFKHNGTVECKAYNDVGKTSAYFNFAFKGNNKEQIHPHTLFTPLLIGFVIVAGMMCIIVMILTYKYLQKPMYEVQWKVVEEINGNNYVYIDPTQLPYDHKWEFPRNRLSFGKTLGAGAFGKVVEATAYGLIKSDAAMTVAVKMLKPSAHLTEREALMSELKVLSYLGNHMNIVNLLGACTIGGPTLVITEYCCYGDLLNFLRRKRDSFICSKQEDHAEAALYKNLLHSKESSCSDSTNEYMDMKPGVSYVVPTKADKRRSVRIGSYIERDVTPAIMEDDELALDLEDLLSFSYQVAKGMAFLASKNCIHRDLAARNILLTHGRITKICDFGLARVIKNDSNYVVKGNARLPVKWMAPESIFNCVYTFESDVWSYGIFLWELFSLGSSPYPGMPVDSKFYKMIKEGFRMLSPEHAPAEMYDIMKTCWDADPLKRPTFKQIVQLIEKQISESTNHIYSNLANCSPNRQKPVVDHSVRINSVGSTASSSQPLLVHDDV
RSK1 Kin.Dom.1-N-terminal, sequence (Q15418 62-321 limits assumed): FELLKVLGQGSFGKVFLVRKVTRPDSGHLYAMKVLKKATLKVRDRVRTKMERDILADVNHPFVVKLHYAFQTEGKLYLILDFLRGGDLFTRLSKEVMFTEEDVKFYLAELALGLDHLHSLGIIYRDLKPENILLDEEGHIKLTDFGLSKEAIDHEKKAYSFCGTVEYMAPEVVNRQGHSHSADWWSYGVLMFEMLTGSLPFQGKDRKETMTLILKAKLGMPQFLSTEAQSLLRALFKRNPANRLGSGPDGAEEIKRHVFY
CDK9, sequence (P50750 whole entry): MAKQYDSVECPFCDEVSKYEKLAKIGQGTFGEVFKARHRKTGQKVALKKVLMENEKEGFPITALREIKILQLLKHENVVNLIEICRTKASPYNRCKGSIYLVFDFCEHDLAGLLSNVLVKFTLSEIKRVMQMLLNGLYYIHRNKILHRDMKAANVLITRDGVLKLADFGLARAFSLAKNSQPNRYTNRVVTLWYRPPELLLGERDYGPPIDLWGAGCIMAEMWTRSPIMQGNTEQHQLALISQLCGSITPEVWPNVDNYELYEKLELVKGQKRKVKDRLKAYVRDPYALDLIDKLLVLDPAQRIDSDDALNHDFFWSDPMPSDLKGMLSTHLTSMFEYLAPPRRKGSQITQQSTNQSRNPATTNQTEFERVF
SRPK1, sequence (Q96SB4 whole entry): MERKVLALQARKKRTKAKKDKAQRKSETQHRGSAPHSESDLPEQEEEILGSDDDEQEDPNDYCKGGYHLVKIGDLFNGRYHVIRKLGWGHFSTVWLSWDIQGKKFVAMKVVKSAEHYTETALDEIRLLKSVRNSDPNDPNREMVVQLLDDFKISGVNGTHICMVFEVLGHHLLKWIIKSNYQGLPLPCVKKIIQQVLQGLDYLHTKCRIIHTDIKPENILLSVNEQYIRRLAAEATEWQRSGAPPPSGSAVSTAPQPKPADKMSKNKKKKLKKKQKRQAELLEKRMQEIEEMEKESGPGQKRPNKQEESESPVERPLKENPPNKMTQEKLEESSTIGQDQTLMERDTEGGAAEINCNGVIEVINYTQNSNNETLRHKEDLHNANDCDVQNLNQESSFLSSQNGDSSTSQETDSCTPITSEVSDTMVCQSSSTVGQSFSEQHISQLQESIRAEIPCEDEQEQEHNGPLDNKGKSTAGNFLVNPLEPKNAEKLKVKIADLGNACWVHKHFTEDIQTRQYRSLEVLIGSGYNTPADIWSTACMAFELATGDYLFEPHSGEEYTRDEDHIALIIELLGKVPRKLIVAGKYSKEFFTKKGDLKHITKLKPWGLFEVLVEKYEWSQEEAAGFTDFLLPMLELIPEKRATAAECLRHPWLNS
BUB1, sequence (O43683 whole entry): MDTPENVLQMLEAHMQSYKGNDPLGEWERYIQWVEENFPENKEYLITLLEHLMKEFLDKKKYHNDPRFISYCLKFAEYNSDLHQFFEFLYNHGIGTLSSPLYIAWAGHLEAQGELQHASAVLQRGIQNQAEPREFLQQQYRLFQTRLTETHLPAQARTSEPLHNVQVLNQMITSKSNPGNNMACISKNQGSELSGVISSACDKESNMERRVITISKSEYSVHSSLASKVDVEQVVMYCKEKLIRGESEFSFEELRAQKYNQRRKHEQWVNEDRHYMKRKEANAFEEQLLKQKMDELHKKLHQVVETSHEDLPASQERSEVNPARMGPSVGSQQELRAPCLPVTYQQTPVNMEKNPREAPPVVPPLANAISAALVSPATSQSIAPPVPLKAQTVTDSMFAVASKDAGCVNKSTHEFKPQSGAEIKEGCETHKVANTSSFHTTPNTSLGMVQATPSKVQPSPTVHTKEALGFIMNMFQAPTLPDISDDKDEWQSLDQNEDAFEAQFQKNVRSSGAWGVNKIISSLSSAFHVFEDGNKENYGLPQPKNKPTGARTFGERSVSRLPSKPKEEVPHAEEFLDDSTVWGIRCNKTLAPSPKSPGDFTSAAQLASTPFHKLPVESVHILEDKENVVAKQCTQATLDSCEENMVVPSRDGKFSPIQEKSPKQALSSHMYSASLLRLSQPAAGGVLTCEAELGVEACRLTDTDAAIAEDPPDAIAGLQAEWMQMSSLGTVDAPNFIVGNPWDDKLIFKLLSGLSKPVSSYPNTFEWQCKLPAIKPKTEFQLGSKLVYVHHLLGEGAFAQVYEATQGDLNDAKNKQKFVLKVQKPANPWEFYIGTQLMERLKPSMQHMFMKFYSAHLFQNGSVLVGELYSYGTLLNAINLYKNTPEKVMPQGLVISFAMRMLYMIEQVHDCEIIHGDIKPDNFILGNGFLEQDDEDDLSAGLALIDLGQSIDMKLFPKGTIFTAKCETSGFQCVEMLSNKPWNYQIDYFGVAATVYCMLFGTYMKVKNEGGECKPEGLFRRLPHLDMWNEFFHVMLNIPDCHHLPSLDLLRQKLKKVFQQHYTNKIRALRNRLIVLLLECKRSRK
SGK, sequence (O00141 whole entry): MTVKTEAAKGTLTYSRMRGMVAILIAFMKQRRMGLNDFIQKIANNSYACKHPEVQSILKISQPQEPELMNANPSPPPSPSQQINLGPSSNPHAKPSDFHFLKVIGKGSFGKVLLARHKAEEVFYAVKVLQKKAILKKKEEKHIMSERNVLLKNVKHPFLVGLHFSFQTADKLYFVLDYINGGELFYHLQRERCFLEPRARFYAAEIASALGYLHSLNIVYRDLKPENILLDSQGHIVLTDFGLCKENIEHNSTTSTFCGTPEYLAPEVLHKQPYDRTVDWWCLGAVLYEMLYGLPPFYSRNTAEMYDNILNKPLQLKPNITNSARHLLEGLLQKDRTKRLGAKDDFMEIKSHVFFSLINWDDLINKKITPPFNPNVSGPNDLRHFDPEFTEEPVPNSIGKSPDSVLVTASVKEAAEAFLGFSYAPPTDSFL
LATS1, sequence (O95835 whole entry): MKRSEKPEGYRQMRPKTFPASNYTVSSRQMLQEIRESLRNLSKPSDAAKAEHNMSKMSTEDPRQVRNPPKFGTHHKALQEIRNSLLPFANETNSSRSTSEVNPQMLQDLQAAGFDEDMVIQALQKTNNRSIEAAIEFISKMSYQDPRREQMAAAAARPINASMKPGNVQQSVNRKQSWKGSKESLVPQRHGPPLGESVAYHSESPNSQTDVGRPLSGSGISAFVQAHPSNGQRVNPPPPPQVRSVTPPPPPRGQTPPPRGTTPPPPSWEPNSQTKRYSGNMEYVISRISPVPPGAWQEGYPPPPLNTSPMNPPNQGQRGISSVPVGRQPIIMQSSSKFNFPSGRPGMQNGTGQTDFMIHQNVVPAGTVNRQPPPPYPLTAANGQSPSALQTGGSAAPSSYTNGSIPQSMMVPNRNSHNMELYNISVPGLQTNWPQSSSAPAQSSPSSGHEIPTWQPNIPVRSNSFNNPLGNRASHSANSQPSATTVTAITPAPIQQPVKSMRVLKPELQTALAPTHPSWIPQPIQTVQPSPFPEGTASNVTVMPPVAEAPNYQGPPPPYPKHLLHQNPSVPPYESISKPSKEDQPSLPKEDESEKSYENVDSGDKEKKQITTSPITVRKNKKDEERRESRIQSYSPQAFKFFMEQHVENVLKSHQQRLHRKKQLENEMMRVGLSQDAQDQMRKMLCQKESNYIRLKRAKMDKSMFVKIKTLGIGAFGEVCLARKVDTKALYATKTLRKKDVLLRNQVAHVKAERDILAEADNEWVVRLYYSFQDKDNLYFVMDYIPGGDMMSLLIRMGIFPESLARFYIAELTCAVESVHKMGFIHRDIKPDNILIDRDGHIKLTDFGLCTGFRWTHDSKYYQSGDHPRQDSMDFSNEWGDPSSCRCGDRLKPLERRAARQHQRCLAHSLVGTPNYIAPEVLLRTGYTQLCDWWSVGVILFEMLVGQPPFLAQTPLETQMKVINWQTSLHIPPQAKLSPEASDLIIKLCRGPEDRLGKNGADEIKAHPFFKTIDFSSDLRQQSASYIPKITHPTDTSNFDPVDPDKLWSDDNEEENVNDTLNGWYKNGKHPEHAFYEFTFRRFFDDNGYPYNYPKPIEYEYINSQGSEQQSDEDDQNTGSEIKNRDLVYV
KIT (A829P), sequence (P10721 26-976 A829P): as the sequence (P10721 26-976 D816V) above, with V791D, A804P counted along it

Nc1ncc(-c2nc3ccccc3o2)c(-c2ccncc2)n1 [Comparative Compound 324, 5-(1,3-benzoxazol-2-yl)-4-(pyridine-4-yl)pyrimidin-2-amine]
remaining binding at 10 µM (ARK5): 100% | remaining binding at 10 µM (BRAF (V600E)): 59% | remaining binding at 10 µM (BUB1): 44% | remaining binding at 10 µM (CDK9): 83% | remaining binding at 10 µM (CLK1): 80% | remaining binding at 10 µM (CLK3): 99% | remaining binding at 10 µM (CSNK1A1L): 81% | remaining binding at 10 µM (CSNK1G1): 93% | remaining binding at 10 µM (EGFR (L858R)): 76% | remaining binding at 10 µM (FLT4): 79% | remaining binding at 10 µM (GSK3B): 95% | remaining binding at 10 µM (HASPIN): 70% | remaining binding at 10 µM (INSRR): 100% | remaining binding at 10 µM (IRAK3): 90% | remaining binding at 10 µM [1]: 98% | remaining binding at 10 µM (KIT (A829P)): 79% | remaining binding at 10 µM (KIT (D816V)): 91% | remaining binding at 10 µM (KIT-autoinhibited): 88% | remaining binding at 10 µM (LATS1): 100% | remaining binding at 10 µM (MEK1): 97% | remaining binding at 10 µM (MERTK): 99% | remaining binding at 10 µM (MKK7): 100% | remaining binding at 10 µM (PIK3C2B): 83% | remaining binding at 10 µM (PIK3CA (C420R)): 99% | remaining binding at 10 µM (PIK3CD): 100% | remaining binding at 10 µM (PIP5K1A): 96% | remaining binding at 10 µM (RET (M918T)): 88% | remaining binding at 10 µM (ROCK2): 83% | remaining binding at 10 µM [2]: 95% | remaining binding at 10 µM [3]: 86% | remaining binding at 10 µM [4]: 100% | remaining binding at 10 µM [5]: 35% | remaining binding at 10 µM (SBK1): 83% | remaining binding at 10 µM (SGK): 100% | remaining binding at 10 µM (SgK110): 94% | remaining binding at 10 µM (SRC): 84% | remaining binding at 10 µM (SRPK1): 64% | remaining binding at 10 µM (STK16): 89% | remaining binding at 10 µM (STK39): 100% | remaining binding at 10 µM (TAOK1): 100% | remaining binding at 10 µM (TIE2): 98% | remaining binding at 10 µM (TNIK): 78%

CNc1c(C(N)=O)c2ccccn2c1C(=O)c1ccc(F)cc1 [Compound A, 2-methyl-amino-3-[(4-fluorophenyl)carbonyl]indolizine-1-carboxamide]
remaining binding at 10 µM (ARK5): 85% | remaining binding at 10 µM (BRAF (V600E)): 86% | remaining binding at 10 µM (BUB1): 44% | remaining binding at 10 µM (CDK9): 74% | remaining binding at 10 µM (CLK1): 67% | remaining binding at 10 µM (CLK3): 94% | remaining binding at 10 µM (CSNK1A1L): 1.2% | remaining binding at 10 µM (CSNK1G1): 88% | remaining binding at 10 µM (EGFR (L858R)): 25% | remaining binding at 10 µM (FLT4): 62% | remaining binding at 10 µM (GSK3B): 86% | remaining binding at 10 µM (HASPIN): 45% | remaining binding at 10 µM (INSRR): 100% | remaining binding at 10 µM (IRAK3): 60% | remaining binding at 10 µM [1]: 90% | remaining binding at 10 µM (KIT (A829P)): 86% | remaining binding at 10 µM (KIT (D816V)): 71% | remaining binding at 10 µM (KIT-autoinhibited): 78% | remaining binding at 10 µM (LATS1): 93% | remaining binding at 10 µM (MEK1): 39% | remaining binding at 10 µM (MERTK): 55% | remaining binding at 10 µM (MKK7): 100% | remaining binding at 10 µM (PIK3C2B): 74% | remaining binding at 10 µM (PIK3CA (C420R)): 94% | remaining binding at 10 µM (PIK3CD): 100% | remaining binding at 10 µM (PIP5K1A): 100% | remaining binding at 10 µM (RET (M918T)): 56% | remaining binding at 10 µM (ROCK2): 71% | remaining binding at 10 µM [2]: 96% | remaining binding at 10 µM [3]: 72% | remaining binding at 10 µM [4]: 83% | remaining binding at 10 µM [5]: 6.6% | remaining binding at 10 µM (SBK1): 77% | remaining binding at 10 µM (SGK): 100% | remaining binding at 10 µM (SgK110): 92% | remaining binding at 10 µM (SRC): 40% | remaining binding at 10 µM (SRPK1): 49% | remaining binding at 10 µM (STK16): 81% | remaining binding at 10 µM (STK39): 81% | remaining binding at 10 µM (TAOK1): 94% | remaining binding at 10 µM (TIE2): 100% | remaining binding at 10 µM (TNIK): 53%

Source: patent publication US10815230B2, “Casein kinase 1 delta inhibitor” (ELECTROPHORETICS LIMITED, priority 2015, dated 2020)
